Results reported in PubChem BioAssay (NCI).
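Grown in 96-well plates, cells were treated for 48 hours with each compound at five concentrations. Insufficient inhibition: endpoint recorded as highest concentration tested. The concentration for 50% growth inhibition is given as GI50. TGI: total growth inhibition.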

Assays:
Assay in all cases: growth of human tumour cells (NCI), 48 h
M14 melanoma = tested on: M14 melanoma
MALME-3M melanoma = tested on: MALME-3M melanoma
OVCAR-5 ovarian = tested on: OVCAR-5 ovarian
U251 CNS = tested on: U251 CNS
UACC-257 melanoma = tested on: UACC-257 melanoma
OVCAR-4 ovarian = tested on: OVCAR-4 ovarian
K-562 leukemia = tested on: K-562 leukemia
MCF7 breast = tested on: MCF7 breast
MDA-MB-435 = tested on: MDA-MB-435
HS 578T breast = tested on: HS 578T breast

| SMILES | TGI (M14 melanoma) [µM] | TGI (MALME-3M melanoma) [µM] | TGI (OVCAR-5 ovarian) [µM] | TGI (U251 CNS) [µM] | TGI (UACC-257 melanoma) [µM] | TGI (OVCAR-4 ovarian) [µM] | TGI (K-562 leukemia) [µM] | TGI (MCF7 breast) [µM] | TGI (MDA-MB-435) [µM] | TGI (HS 578T breast) [µM] | GI50 (MCF7 breast) [µM] | GI50 (MDA-MB-435) [µM] | GI50 (M14 melanoma) [µM] | GI50 (MALME-3M melanoma) [µM] | GI50 (OVCAR-5 ovarian) [µM] | GI50 (U251 CNS) [µM] | GI50 (HS 578T breast) [µM] | GI50 (UACC-257 melanoma) [µM] | GI50 (OVCAR-4 ovarian) [µM] | GI50 (K-562 leukemia) [µM] |
| --- | --- | --- | --- | --- | --- | --- | --- | --- | --- | --- | --- | --- | --- | --- | --- | --- | --- | --- | --- | --- |
| c1ccc2c(c1)C1=NCCN1c1ccccc1-2 | 13.3 | 6.77 | 15.2 | 14 | 7.71 | 10.2 |  |  |  |  |  |  |  |  |  |  |  |  |  |  |
| CC(C)c1cc(OCC(O)CO)cc(C(C)C)c1 (stereo not drawn) | > 100 | > 100 | > 100 | > 100 | > 100 | > 100 | > 100 |  |  |  |  |  |  |  |  |  |  |  |  |  |
| Cc1cccc2nc3cccc(C(=O)NCCN(C)C)c3nc12 | 2.36 |  | 5.97 | 4.61 | 2.61 | 4.84 | 10.9 |  |  |  |  |  |  |  |  |  |  |  |  |  |
| CNC(=O)OCC1C2=C(C(=O)C(C)=C(N)C2=O)N2CC3C(N3C)C12OC (stereo not drawn) | > 100 | 18.5 | > 100 | 45.7 | 70.9 | 33 | > 100 | > 100 | > 100 |  |  |  |  |  |  |  |  |  |  |  |
| N#CC1=C(Cl)NC(Cl)=C(C#N)C1c1c(Cl)cccc1Cl | > 100 | > 100 | > 100 | 48.5 | 50.3 |  | 46.9 |  |  |  |  |  |  |  |  |  |  |  |  |  |
| O=C1OC(c2ccccc2)=N/C1=C\c1cccc(F)c1 | > 100 |  | > 100 | > 100 | 88.2 | 94.9 | > 100 | > 100 | > 100 | > 100 |  |  |  |  |  |  |  |  |  |  |
| O=S(=O)(C/C(=N\O)c1ccccc1)c1ccccc1 | > 100 | > 100 | > 100 | > 100 | > 100 | > 100 | > 100 |  |  |  |  |  |  |  |  |  |  |  |  |  |
| O=C(/C=C1/Nc2ccc([N+](=O)[O-])cc2NC1O)c1cccc([N+](=O)[O-])c1 (stereo not drawn) | > 100 | > 100 |  | > 100 | > 100 | 11.1 | > 100 |  |  |  |  |  |  |  |  |  |  |  |  |  |
| COc1ccc(OC)c(Nc2nc(-c3c(C)nc4sccn34)cs2)c1 | > 100 | > 100 | > 100 | > 100 | > 100 | > 100 |  | > 100 | > 100 | > 100 | 1.95 | > 100 | > 100 | > 100 | > 100 | > 100 | 5.3 | > 100 | 14.2 |  |
| Cc1cc2c(cc1N)C(C)C1(CCC(=O)N2Cc2ccccc2)OCCO1 (stereo not drawn) | > 100 | > 100 | > 100 | > 100 | > 100 | > 100 |  | > 100 | > 100 | > 100 |  |  |  |  |  |  |  |  |  |  |
| COC(=O)[C@@H](C)C[C@H](Cc1ccccc1)NC(=O)c1csc([C@@H](C[C@H](C(C)C)N(C)C(=O)[C@H](C)NC(=O)[C@H]2CCCCN2C)OC(C)=O)n1 | 11.3 |  | > 25 | > 25 | > 25 | > 25 | > 25 | > 25 | 0.522 | > 25 | 0.437 | 0.121 | 0.859 |  | 9.48 | 1.58 | 1.39 | > 25 | 2.05 | 0.278 |
| O=C1CC(c2ccc(Cl)cc2)Oc2ccccc21 (stereo not drawn) | 58.4 |  |  | > 100 | > 100 | > 100 | 9.46 | 13.6 | > 100 | 54.8 |  |  |  |  |  |  |  |  |  |  |
| O=C1OC(OCC#CCOC2OC(=O)C(Cl)=C2Cl)C(Cl)=C1Cl (stereo not drawn) | 23.9 |  | 33.2 |  | 32.3 |  |  | 21.8 | 27.2 | 50.5 |  |  |  |  |  |  |  |  |  |  |
| C=C1[C@@H]([C@@]2(C)C=CC(=O)C(C)(C)[C@@H]2CC(=O)OC)CC[C@@]2(C)C(c3ccoc3)OC(=O)[C@H]3O[C@]132 (stereo partly drawn) | > 100 | > 100 | > 100 | > 100 | > 100 | > 100 |  | > 100 | > 100 | > 100 |  |  |  |  |  |  |  |  |  |  |
| Cc1cc2c(C)n(Cc3ccc(Cl)cc3Cl)nc2c(C(=O)O)c1C |  | > 100 | > 100 | > 100 | > 100 |  |  |  |  |  |  |  |  |  |  |  |  |  |  |  |
| CCn1c2ccccc2c2cc(C(O)c3cccc4ncccc34)ccc21 (stereo not drawn) | > 100 |  | > 100 | 3.56 |  | 87.3 | 10.9 | 20.2 | 0.06 | 23.5 | 0.0331 | 0.0215 | 0.0468 |  | 3.25 | 0.0411 | 0.0505 |  | 0.318 | 0.0389 |
| O=[N+]([O-])c1ccc(Cl)cc1C1SCc2nc3ccccc3n21 (stereo not drawn) | > 100 | > 100 |  | > 100 | > 100 | > 100 | > 100 |  |  |  |  |  |  |  |  |  |  |  |  |  |
| COC(=O)C1=CC2OC1(C)CCC2=O (stereo not drawn) | > 100 | > 100 | > 100 | > 100 | > 100 | > 100 | > 100 |  |  |  |  |  |  |  |  |  |  |  |  |  |
| O=C(O)/C=C/C(=O)N1C/C(=C\c2ccccc2)C(=O)/C(=C/c2ccccc2)C1 | 11.9 | 12.3 | 31.8 | 3.79 | 15.8 | 16.4 | 7.86 | 18.3 |  |  |  |  |  |  |  |  |  |  |  |  |
| O=C1C2Nc3ccccc3SC2C(=O)N1c1ccccc1C(F)(F)F (stereo not drawn) | 75.8 | > 100 | > 100 | 45.2 | > 100 | > 100 | > 100 |  |  |  |  |  |  |  |  |  |  |  |  |  |
| CN1C(Cl)=NS(=O)(=O)c2ccccc21 | > 100 |  | > 100 | > 100 | > 100 | > 100 | > 100 | > 100 | > 100 | > 100 |  |  |  |  |  |  |  |  |  |  |
| C[C@H]1C(=O)CC[C@]2(C)CCC(C(C)(C)O)CC12O (stereo partly drawn) | > 100 | > 100 | > 100 | > 100 | > 100 | > 100 | > 100 |  |  |  |  |  |  |  |  |  |  |  |  |  |
| CC12Oc3ccc4ccccc4c3CC1Cc1c(ccc3ccccc13)O2 (stereo not drawn) | > 100 | 17 | > 100 | > 100 | > 100 | 90.6 |  |  |  |  |  |  |  |  |  |  |  |  |  |  |
| COc1ccc(Nc2c3ccccc3nc3[nH]c4ccccc4c23)cc1 |  |  | > 50 | 42.8 | > 50 |  | > 50 | > 50 | > 50 | > 50 | 7.95 | 8.92 |  |  | 26.7 | 11.7 | 21 | 21.2 |  | 7.17 |
